Test results published in PubChem BioAssay (NCI).
“And” between values parts separate entries of the source, which are not always exact repeats. Equal entries are not always repeated.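 Each compound was tested at five concentrations against cells in 96-well plates for 48 hours. Here, GI50 denotes the concentration required for 50% inhibition of growth. Definition used: TGI = concentration required for complete inhibition of growth.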

Tests used:
Test in all cases: NCI tumour cell line growth inhibition, 48 h
[1] = test system: NCI-H522 lung
[2] = test system: DMS 114 small cell lung
[3] = test system: KM20L2 colon
[4] = test system: XF 498 CNS
[5] = test system: DLD-1 colon
[6] = test system: HOP-18 NSCLC
[7] = test system: DMS 273 small cell lung
[8] = test system: LXFL 529 NSCLC
[9] = test system: SNB-78 CNS
[10] = test system: RXF-631 renal
[11] = test system: M19-MEL melanoma
[12] = test system: SN12K1 renal
[13] = test system: P388 leukemia
[14] = test system: P388/ADR leukemia

## CN(C(=O)C12C3C4C1C1C2C3C41C(=O)O)C(C)(C)C (stereo unspecified)
[1]
  TGI: > 100 µM

## COC1=C(OC)C(=O)c2cc(SC)c(=O)c(SC)cc2C1=O
[2]
  TGI: 13.4 µM
[3]
  TGI: > 100 µM
[4]
  TGI: 15.1 µM
[5]
  TGI: > 100 µM
[6]
  TGI: 82.2 µM
[7]
  TGI: > 100 µM
[1]
  TGI: 34.9 µM
[8]
  TGI: 29.5 µM

## C(=C\c1ccccc1)/Cn1nc(-c2ccccc2)nc1-c1cnccn1
[1]
  TGI: > 100 µM

## COc1cc2c(cc1C)NC(=O)/C2=C\c1cccnc1
[1]
  TGI: 70.2 µM

## COc1cccc2c1C(=O)c1c(O)c3c(c(O)c1C2=O)CC(O)(C(C)=O)CC3OC1CC([N+](C)(C)C)C(O)C(C)O1 (stereo unspecified)
[2]
  TGI: > 100 µM
[3]
  TGI: > 100 µM
[9]
  TGI: > 100 µM
[4]
  TGI: 92.2 µM
[5]
  TGI: > 100 µM
[6]
  TGI: > 100 µM
[7]
  TGI: > 100 µM
[1]
  TGI: > 100 µM
[10]
  TGI: > 100 µM
[11]
  TGI: > 100 µM
[8]
  TGI: > 100 µM

## COC(=O)/C=C/COCC1C2CCC(=O)C21 (stereo unspecified)
[1]
  TGI: > 100 µM

## CCOC(=O)c1nc2cc(F)c(F)cc2nc1NCc1cc(OC)c(OC)c(OC)c1
[1]
  TGI: > 100 µM

## COC(=O)C1=C(C(=O)OC)C2(c3ccccc3)c3ccccc3C(=O)C1N2C1CCCCC1 (stereo unspecified)
[1]
  TGI: > 100 µM

## COc1nc(N)nc2c1n(C)c[n+]2C
[1]
  TGI: > 100 µM

## CCCCC1=C(C(=O)N2CCOCC2)C2(OCCO2)C1Cl (stereo unspecified)
[1]
  TGI: 99.3 µM

## N#Cc1c(Cl)cccc1Oc1ccc(S(=O)(=O)/N=C(\NO)Nc2ccc(Cl)cc2)cc1
[1]
  TGI: 35.6 µM

## [N-]=[N+]=NC1(c2ccccc2)C(=O)c2cccc3c4ccccc4n(c23)C1=O (stereo unspecified)
[1]
  TGI: > 100 µM

## CCOC(=O)N(C)CCC1CC=CC(=O)C1c1cccc(OC)c1OC (stereo unspecified)
[1]
  TGI: 27.5 µM

## CCOC(=O)C(C)c1nc2cc(F)c(N3CCOCC3)cc2[nH]c1=O (stereo unspecified)
[1]
  TGI: > 100 µM

## COc1ccc2c(c1OC)C(Br)CCC(Br)(Br)C2=O (stereo unspecified)
[1]
  TGI: 3.38 µM

## Nc1nc([O-])c([I+]c2ccccc2)c(=O)[nH]1
[1]
  TGI: > 100 µM

## Nc1c(O)c2c(c(O)c1Cl)C(=O)C=CC2=O
[1]
  TGI: 28 µM

## NS(=O)(=O)c1ccc(NC(=S)/N=C/c2c(O)c3ccccc3[nH]c2=O)cc1
[1]
  TGI: > 100 µM

## COC(=O)CC(SCCO)SCCO
[1]
  TGI: > 100 µM

## Clc1ccccc1-c1nn2c(CCCCCCCCc3nnc4sc(-c5ccccc5Cl)nn34)nnc2s1
[1]
  TGI: > 100 µM

## COC(=O)/N=[N+](\[O-])C(c1ccc(Cl)cc1)c1ccc(Cl)cc1
[1]
  TGI: > 100 µM

## CCOC(=O)Nn1cnnc1Cc1ccccc1
[1]
  TGI: > 100 µM

## O=C1c2scc(-c3ccc(F)cc3)c2-n2cccc21
[1]
  TGI: > 100 µM

## CCOC(=O)CCN1C(=O)c2ccc(NC(=O)C(=O)O)cc2S1(=O)=O
[1]
  TGI: > 100 µM

## N#Cc1c(-c2cccc(Br)c2)cc(-c2ccc(Cl)cc2)nc1N
[1]
  TGI: 30.4 µM

## Cc1cccc(/C=N/NC(=S)NC2CCCCC2)n1
[1]
  TGI: > 64.3 µM

## COC(=O)C1C(O)C(C)C(O)C(C)/C=C\C=C(C)C(=O)Nc2c(C)c(OC(C)=O)c3c(c2O)C(=O)C(C)=C2OCOC(=C23)C(C)=CC(C)(O)C(O)C(C)C1O (stereo unspecified)
[12]
  TGI: > 63.3 µM
[2]
  TGI: 52.6 µM
[3]
  TGI: > 72.8 µM
[13]
  TGI: 47.1 µM
[9]
  TGI: > 75 µM
[14]
  TGI: > 58.5 µM
[5]
  TGI: 31.4 µM
[7]
  TGI: > 75 µM
[1]
  GI50: 23.4 µM and 74.2 µM
  TGI: > 100 µM

## Nc1ccc2c(c1)N(C(=O)CCCC(=O)N1CC(CCl)c3ccc(N)cc31)CC2CCl (stereo unspecified)
[1]
  TGI: 0.286 µM

## COc1ccc(/C=C/C(=O)c2cccc(C(=O)/C=C/c3ccc(OC)c(OC)c3)n2)cc1OC
[1]
  TGI: 23.1 µM

## CCOC(=O)NC(Nc1cccc(F)c1)(C(F)(F)F)C(F)(F)F
[1]
  TGI: > 100 µM

## CC[C@@]1(O)C(=O)OCc2c1cc1n(c2=O)Cc2c-1nc1ccccc1c2C=Nc1ccc(N[C@@H]2c3cc4c(cc3[C@@H](c3cc(OC)c(O)c(OC)c3)[C@H]3C(=O)OC[C@@H]32)OCO4)cc1
[1]
  TGI: > 100 µM

## COP(=N[Si](C)(C)C)(OC)OC
[1]
  TGI: > 100 µM

## COc1ccc(-c2c(C#N)c(N)n(C3OCC(O)C(O)C3O)c(=S)c2C#N)cc1 (stereo unspecified)
[1]
  TGI: > 100 µM

## CC(C)/C(Cl)=N/OC(NC(=O)Nc1ccc(Cl)c(Cl)c1)(C(F)(F)F)C(F)(F)F
[1]
  TGI: 3.31 µM

## C=CCN1C(=O)/C(=C/c2ccccc2)N=C1SC/C=C/C
[1]
  TGI: > 100 µM

## CSC1=C(C)S/C(=C\c2ccc(/C=C3\SC(C)=C(SC)S3)cc2)S1
[1]
  TGI: > 100 µM

## Cc1cccc2c1CC(C1OC(=O)c3c(C)cccc31)C2=O (stereo unspecified)
[1]
  TGI: > 100 µM

## CCOc1cc(NC(C)=O)ccc1C(=O)NN1C(=O)C(Cl)C1c1ccc(O)c(OC)c1 (stereo unspecified)
[1]
  TGI: 22.8 µM

## c1ccc2c(c1)Sc1ccccc1N2CCCN1c2ccccc2Sc2ccccc21
[1]
  TGI: > 100 µM

## Cc1ccc(/C(O)=C/c2nc3ccccc3nc2NC23CC4CC(CC(C4)C2)C3)cc1
[1]
  TGI: > 10 µM

## Cc1ccc(-n2nnc3c(NNc4ccccc4)n[nH]c(=O)c32)cc1
[1]
  TGI: > 100 µM

## N#CCN(Cc1ccccc1)[C@H]1CCC[C@]1(O)/C=C/c1ccc2c(c1)OCO2
[1]
  TGI: 32.1 µM

## CC1=CC(=C(c2ccc(N)c(C)c2)c2ccc(N)c(C)c2)C=CC1=N
[2]
  TGI: 9.96 µM
[3]
  TGI: 14.5 µM
[9]
  TGI: 23.4 µM
[4]
  TGI: 11.7 µM
[5]
  TGI: > 100 µM
[7]
  TGI: 10.8 µM
[1]
  TGI: 13.6 µM
[11]
  TGI: 14.7 µM
[8]
  TGI: 15 µM

## N#Cc1cccc(Nc2ccccc2SSc2ccccc2Nc2cccc(C#N)c2)c1
[1]
  TGI: 12.2 µM

## CC[N+](C)(C)c1ccc(C(=C2C=CC(=[N+](C)C)C=C2)c2ccc(N(C)C)cc2)cc1
[2]
  TGI: 26.7 µM
[4]
  TGI: 33.2 µM
[5]
  TGI: 62.4 µM
[6]
  TGI: > 100 µM
[7]
  TGI: 25.6 µM
[1]
  TGI: 9.37 µM
[10]
  TGI: 38.4 µM
[11]
  TGI: 25 µM
[8]
  TGI: 34.1 µM

## CCOC(=O)C12C3CCC1C2C(=O)C3 (stereo unspecified)
[1]
  TGI: > 100 µM

## COc1ccccc1/[N+]([O-])=C/c1ccccc1OC(=S)S
[1]
  TGI: 71.4 µM

## CCCC[P+](CCCC)(CCCC)C(C(=O)OC)C(C(=O)OC)=C1SC(C(=O)OC)=C(C(=O)OC)S1 (stereo unspecified)
[1]
  TGI: > 100 µM

## CCCCCCCCCCCCOCCCCCCCCC/C=C/c1ccc2c(c1)OCCOCCOCCOCCO2
[1]
  TGI: 28.3 µM

## Cc1ccc([N+](=O)[O-])cc1S(=O)(=O)Nc1ccc(C2=NOC(c3ccccc3)C2)cc1 (stereo unspecified)
[1]
  TGI: 30.1 µM

## CC12CC(=O)OC(Cc3ccccc31)O2 (stereo unspecified)
[2]
  TGI: > 100 µM
[3]
  TGI: > 100 µM
[9]
  TGI: > 100 µM
[4]
  TGI: > 100 µM
[5]
  TGI: > 100 µM
[6]
  TGI: > 100 µM
[7]
  TGI: > 100 µM
[1]
  TGI: > 100 µM
[11]
  TGI: > 100 µM
[8]
  TGI: > 100 µM

## CCOC(=O)NC(OCCN(C)C)(C(F)(F)F)C(F)(F)F
[1]
  TGI: > 100 µM

## CC1=NN(c2cccc(Cl)c2)C(=N/c2nc3ccccc3s2)/C1=C\c1ccccc1O
[1]
  TGI: 49.4 µM

## CN(C)Cc1cc(N=Nc2c(Cl)cccc2Cl)ccc1O
[1]
  TGI: > 100 µM

## O=c1ccc(-c2ccc(-n3ccnc3)cc2)nn1CCO
[1]
  TGI: > 100 µM

## CCOC(=O)/C(=C\NC[C@@H](C)O)c1nc2ccccc2[nH]1
[1]
  TGI: > 100 µM

## O=c1[nH]nc(Cc2ccccc2)n1N=C1CCCCC1
[1]
  TGI: > 100 µM

## Cc1nc(C)c(N2CCN(C(=O)NC(CCC(=O)O)C(=O)O)CC2)c(=O)[nH]1 (stereo unspecified)
[1]
  TGI: > 100 µM

## CCCCn1c(C)c(C)c2c1NN=C(C#N)S2(=O)=O
[1]
  TGI: > 100 µM

## O=S(=O)(O)c1ccc(N=Nc2c(O)ccc3ccccc23)cc1
[1]
  TGI: > 100 µM

## O=c1oc2ccccc2cc1-c1nc2ccccc2c(=O)[nH]1
[1]
  TGI: > 100 µM

## O=C1CSC2(CC(/C=C/c3cccc(Br)c3)=NN2c2cccc(S(=O)(=O)O)c2)N1c1nc2ccccc2s1 (stereo unspecified)
[1]
  TGI: > 100 µM

## O=C(/C=C/c1ccsc1)c1cccs1
[1]
  TGI: 39.4 µM

## N/C(=N\Nc1cccc(Cl)c1)c1cccnc1
[1]
  TGI: > 100 µM

## CC(C)C(=O)CC(Sc1ccc(N)cc1)c1ccccc1 (stereo unspecified)
[1]
  TGI: 30.2 µM
